Measurements: US9440941B2, “Substituted chroman-6-yloxy-cycloalkanes and their use as pharmaceuticals” (SANOFI, priority 2013, dated 2016)

Tested on: Sprague-Dawley rats
Assay: In vivo method for determining the effect on heart contractility (left ventricular dp/dtmax)
Set-up: species or system rat
Settings: anesthetized male Sprague-Dawley rats, intravenous, vs solvent control
Protocol: B) In Vivo Method for Determining the Effect on Heart Contractility
Adult male Sprague-Dawley rats (Harlan Winkelmann, Borchen, Germany) weighing 340 to 370 g were anesthetized with pentobarbital (100 mg/kg i.p.) and ventilated with a mixture of oxygen (40%) and room air (60%) at a tidal volume of 1 ml/100 g at 60 breaths/min. Body temperature was maintained at 36.5±0.3° C. with a heating lamp and was monitored with a rectal thermo sensor. Systemic blood pressure was measured in the left carotid artery using a pressure transducer (Combitrans; B. Braun Melsungen AG, Melsungen, Germany) connected to a DC-bridge-amplifier (PLUGSYS/ADC Type 663; Harvard Apparatus GmbH, March-Hugstetten, Germany). The electrocardiogram was measured as lead II via subcutaneously placed electrodes connected to a Heart-Rate-Module (PLUGSYS/HRM Type 669; Harvard Apparatus GmbH, March-Hugstetten, Germany). A micro-tip catheter (2 French, SPR-320; Millar Instruments, Houston, Tex., USA) was placed via the right carotid artery into the left ventricle, and the left ventricular pressure (LVP) and the enddiastolic pressure (EDP) were continuously measured. Registration of the hemodynamic data was performed via an analog digital converter by a personal computer using Notocord software (HEM version 3.5). Left ventricular contractility (dp/dtmax) and relaxation (dp/dtmin) were calculated from the LVP signal. For intravenous administration of the test compounds, the left jugular vein was prepared and a PP-50 catheter was inserted. Test compounds were administered either by intravenous bolus injection or by intravenous infusion by means of an infusion pump (Unita; B. Braun Melsungen AG, Melsungen, Germany). Test compounds were dissolved in a mixture of Glycofurol (75%) and Cremophor (25%), and the solution was further diluted with distilled water (1:4). In a typical experiment, several dosages of the test compound were administered subsequently at increasing doses. Statistical significance of the data obtained with drug vs control experiments, in which solvent was administered, was evaluated with the 2-sided ANOVA test (program Everstat). Increases in left ventricular contractility (percent increase) by example compounds are given in Table 3 in comparison to control experiments in which solvent was administered.

NCC(=O)N[C@H]1CC[C@H](Oc2ccc3c(c2)CC[C@@H](c2ccccc2)O3)CC1 [Example 159, 2-Amino-N-[trans-4-((S)-2-phenyl-chroman-6-yloxy)-cyclohexyl]-acetamide]
Contractility increase (left ventricular contractility) (0.1 mg/kg): 46%
Contractility increase (left ventricular contractility) (0.3 mg/kg): 104%
Contractility increase (left ventricular contractility) (1.0 mg/kg): 140%

Cc1ccccc1[C@@H]1CCc2cc(O[C@H]3CC[C@H](C(=O)NCCO)CC3)ccc2O1 [Example 268, trans-4-((S)-2-o-tolyl-chroman-6-yloxy)-cyclohexanecarboxylic acid (2-hydroxy-ethyl)-amide]
Contractility increase (left ventricular contractility) (0.1 mg/kg): 108%
Contractility increase (left ventricular contractility) (0.3 mg/kg): 154%
Contractility increase (left ventricular contractility) (1.0 mg/kg): 179%

O=C(N[C@H]1CC[C@H](Oc2ccc3c(c2)CCC(c2ccccc2)O3)CC1)[C@@H]1CCCN1 (stereo partly drawn) [Example 180, (S)—N-[trans-4-(2-Phenyl-chroman-6-yloxy)-cyclohexyl]-pyrrolidine-2-carboxamide]
Contractility increase (left ventricular contractility) (0.1 mg/kg): 26%
Contractility increase (left ventricular contractility) (0.3 mg/kg): 66%
Contractility increase (left ventricular contractility) (1.0 mg/kg): 99%

Cc1ccccc1C1CCc2cc(OC3CCC(C(=O)NCc4ccno4)CC3)ccc2O1 (stereo not drawn) [Example 158, N-(Isoxazol-5-ylmethyl)-4-(2-o-tolyl-chroman-6-yloxy)-cyclohexanecarboxamide]
Contractility increase (left ventricular contractility) (0.1 mg/kg): 106%
Contractility increase (left ventricular contractility) (0.3 mg/kg): 139%
Contractility increase (left ventricular contractility) (1.0 mg/kg): 146%

Cc1ccccc1C1CCc2cc(O[C@H]3CC[C@H](N)CC3)ccc2O1.Cl (stereo partly drawn) [Example 156, trans-4-(2-o-Tolyl-chroman-6-yloxy)-cyclohexylamine]
Contractility increase (left ventricular contractility) (0.1 mg/kg): 44%
Contractility increase (left ventricular contractility) (0.3 mg/kg): 110%
Contractility increase (left ventricular contractility) (1.0 mg/kg): 171%

Cc1ccccc1[C@@H]1CCc2cc(O[C@H]3CC[C@H](C(=O)NCCOP(=O)([O-])[O-])CC3)ccc2O1.[Na+].[Na+] [Example 303, Phosphoric acid mono-(2-{[trans-4-((S)-2-o-tolyl-chroman-6-yloxy)-cyclohexanecarbonyl]-amino}-ethyl) ester disodium salt]
Contractility increase (left ventricular contractility) (0.1 mg/kg): 69%
Contractility increase (left ventricular contractility) (0.3 mg/kg): 114%
Contractility increase (left ventricular contractility) (1.0 mg/kg): 172%

Cc1ccccc1C1CCc2cc(OC3CCC(NCc4c(C)nn(C)c4C)CC3)ccc2O1 (stereo not drawn) [Example 177, 4-(2-o-Tolyl-chroman-6-yloxy)-N-(1,3,5-trimethylpyrazol-4-ylmethyl)-cyclohexylamine]
Contractility increase (left ventricular contractility) (0.1 mg/kg): 29%
Contractility increase (left ventricular contractility) (0.3 mg/kg): 81%
Contractility increase (left ventricular contractility) (1.0 mg/kg): 134%
